Reference: article PMC9963287 (Viruses, 2023)

Legend:
[1] = molecular target: T1, M^pro (Severe acute respiratory syndrome coronavirus 2, UniProt P0DTD1); test: Bio-layer interferometry binding kinetics assay; parameters: species or system SARS-CoV-2; conditions: BLI, 1:1 binding model, 30 °C; for Kd: KD = koff/kon
[2] = molecular target: SARS-CoV-2 M^pro (Severe acute respiratory syndrome coronavirus 2, UniProt P0DTD1); test: In vitro FRET M^pro inhibition assay; type: biochemical; conditions: 50 nM M^pro; for IC50: FRET assay, inhibitor 3.125-100 μM, read-out: IC50 against M^pro enzymatic activity; for inhibition at 50 µM: initial screen at 50 μM compound, read-out: inhibitory activity against M^pro
[3] = molecular target: T1, M^pro; conditions: at a concentration of 50 μM; cited from earlier work
[4] = parameters: method as in earlier work; conditions: in animals; cited from earlier work

| SMILES | koff [1] | kon [1] | Kd [1] | IC50 [2] | inhibition at 50 µM [2] | M^pro inhibitory activity [3] | side effects [4] |
| --- | --- | --- | --- | --- | --- | --- | --- |
| O=C(CC[C@@H](C(=O)Nc1cccc([N+](=O)[O-])c1)n1cnc2ccccc2c1=O)Nc1cccc([N+](=O)[O-])c1 [G1] | 0.00325 s⁻¹ | 125 M⁻¹ s⁻¹ | 26 µM | ~20 µM | > 50% |  |  |
| CC(O)(CS(=O)(=O)c1ccc(F)cc1)C(=O)Nc1ccc(C#N)c(C(F)(F)F)c1 (stereo not shown) [bicalutamide] |  |  |  |  |  | more than 30% |  |
| Nc1ccc(OC(=O)CC[C@@H](C(=O)Oc2ccc(N)c([N+](=O)[O-])c2)n2cnc3ccccc3c2=O)cc1[N+](=O)[O-] [G4] | 0.413 s⁻¹ | 16200 M⁻¹ s⁻¹ | 25.5 µM | ~20 µM | > 50% |  |  |
| COc1cccc(Nc2c(C(N)=O)cnc3c(C)cc(S(=O)(=O)c4cccc(C(=O)N(C)C)c4)cc23)c1 [GSK-256066] |  |  |  |  |  | more than 30% |  |
| CC(C)CC(NC(=O)OCc1ccccc1)C(=O)NC(CC1CCNC1=O)C(O)S(=O)(=O)O (stereo not shown) [GC376] |  |  |  |  |  |  | delayed adult teeth development |
